Values of other authors as cited in patent US11529445B2, “Methods and apparatus for kidney dialysis and extracorporeal detoxification” (HIBAR Microsciences LLC, priority 2013, dated 2022).

Tested on: Connexin-43
Conditions: cell culture models; concentrations commonly found among ESRD patients

SMILES: Cc1ccc(O)cc1 [p-cresol]
- degradation of Connexin-43 within cardiac gap junctions: dose-dependent degradation of Connexin-43
